Assay results reported in patent US10233156B2, “9-membered fused ring derivative” (Shionogi & Co., Ltd., priority 2015, dated 2019).

Experiments:
recombinant human ACC2 = recombinant human ACC2 (Homo sapiens (Human), UniProt O00763); assay: Measurement of inhibitory activity on human ACC2 (MALDI-TOF MS, conversion of acetyl CoA to malonyl CoA); assay type: biochemical; details: recombinant human ACC2, room temperature, 1 to 3 hours
Text: After a cDNA encoding human ACC2 (27 amino acid residue to 2458 amino acid residues from the N-terminus) was cloned from human kidney cDNA library (Clontech), human ACC2 gene containing His-tag sequence at 5′ terminus was inserted into pFastBac1 (Invitrogen). Recombinant baculovirus was generated using Bac-to-Bac baculovirus expression system (Invitrogen) according to the manufacturer's protocol. To express human ACC2, Sf-9 cells were infected with recombinant baculovirus. After infected cells were disrupted, the filtrated lysate was subjected to Ni-affinity chromatography and anion-exchange chromatography. The fractions containing human ACC2 protein were pooled as recombinant human ACC2 solution.
(§1) Recombinant human ACC1 and recombinant human ACC2, which were prepared by the method mentioned above, were preincubated with assay buffer solution (50 mM HEPES-KOH (pH 7.4), 10 mM magnesium chloride, 6-10 mM potassium citrate, 4 mM reduced form of glutathione, 1.5 mg/ml bovine serum albumin) for one hour. Then, 0.2 μL of each this invention compound solution (in DMSO) were dispensed to 384-well microplate, 5 μL of the preincubated enzyme solution and 5 μL of substrate solution (50 mM HEPES-KOH (pH 7.4), 1 mM ATP, 0.8 mM acetyl CoA and 25-50 mM potassium bicarbonate) were added to microplate. After centrifugation and shaking, the reaction mixtures were incubated in a humidified box at room temperature for 1 to 3 hours. After the incubation, the enzyme reactions were stopped by the addition of EDTA. Then, after the samples were cocrystallized with CHCA (α-cyano-4-hydroxy cinnamic acid) matrices on MALDI target plate, by using the matrix assist laser […] time-of-flight mass spectrometer (MALDI-TOF MS), samples were measured in reflector negative mode. Deprotonated ions of acetyl CoA (AcCoA) of substrate and malonyl CoA (MalCoA) of the reaction product were detected, then, the conversion rates of acetyl CoA to malonyl CoA was calculated by the intensity of [MalCoA-H]−/(Intensity of [MalCoA-H].+Intensity of [AcCoA-H]—) using each signal strength. […] In addition, potassium citrate concentrations in assay buffer solution, potassium hydrogen carbonate concentrations in substrate solution and incubation time were adjusted by each lot of enzyme.

recombinant human ACC1 = recombinant human ACC1 (Homo sapiens (Human), UniProt Q13085); assay: Measurement of inhibitory activity on human ACC1 (MALDI-TOF MS, conversion of acetyl CoA to malonyl CoA); assay type: biochemical; details: recombinant human ACC1, room temperature, 1 to 3 hours
Text: After a cDNA encoding human ACC1 (1 amino acid residue to 2346 amino acid residues from the N-terminus) was cloned from human liver cDNA library (BioChain), human ACC1 gene containing myc-tag and His-tag sequence at 3′ terminus was inserted into pIEXBAC3 (Novagen). Recombinant baculovirus was generated using FlashBACGOLD system (Oxford Expression Technologies) according to the manufacturer's protocol. To express human ACC1, Sf-9 cells were infected with recombinant baculovirus. After infected cells were disrupted, the filtrated lysate was subjected to Ni-affinity chromatography and anion-exchange chromatography. The fractions containing human ACC1 protein were pooled as recombinant human ACC1 solution.
as §1

recombinant human ACC2, sequence (O00763 27-2458): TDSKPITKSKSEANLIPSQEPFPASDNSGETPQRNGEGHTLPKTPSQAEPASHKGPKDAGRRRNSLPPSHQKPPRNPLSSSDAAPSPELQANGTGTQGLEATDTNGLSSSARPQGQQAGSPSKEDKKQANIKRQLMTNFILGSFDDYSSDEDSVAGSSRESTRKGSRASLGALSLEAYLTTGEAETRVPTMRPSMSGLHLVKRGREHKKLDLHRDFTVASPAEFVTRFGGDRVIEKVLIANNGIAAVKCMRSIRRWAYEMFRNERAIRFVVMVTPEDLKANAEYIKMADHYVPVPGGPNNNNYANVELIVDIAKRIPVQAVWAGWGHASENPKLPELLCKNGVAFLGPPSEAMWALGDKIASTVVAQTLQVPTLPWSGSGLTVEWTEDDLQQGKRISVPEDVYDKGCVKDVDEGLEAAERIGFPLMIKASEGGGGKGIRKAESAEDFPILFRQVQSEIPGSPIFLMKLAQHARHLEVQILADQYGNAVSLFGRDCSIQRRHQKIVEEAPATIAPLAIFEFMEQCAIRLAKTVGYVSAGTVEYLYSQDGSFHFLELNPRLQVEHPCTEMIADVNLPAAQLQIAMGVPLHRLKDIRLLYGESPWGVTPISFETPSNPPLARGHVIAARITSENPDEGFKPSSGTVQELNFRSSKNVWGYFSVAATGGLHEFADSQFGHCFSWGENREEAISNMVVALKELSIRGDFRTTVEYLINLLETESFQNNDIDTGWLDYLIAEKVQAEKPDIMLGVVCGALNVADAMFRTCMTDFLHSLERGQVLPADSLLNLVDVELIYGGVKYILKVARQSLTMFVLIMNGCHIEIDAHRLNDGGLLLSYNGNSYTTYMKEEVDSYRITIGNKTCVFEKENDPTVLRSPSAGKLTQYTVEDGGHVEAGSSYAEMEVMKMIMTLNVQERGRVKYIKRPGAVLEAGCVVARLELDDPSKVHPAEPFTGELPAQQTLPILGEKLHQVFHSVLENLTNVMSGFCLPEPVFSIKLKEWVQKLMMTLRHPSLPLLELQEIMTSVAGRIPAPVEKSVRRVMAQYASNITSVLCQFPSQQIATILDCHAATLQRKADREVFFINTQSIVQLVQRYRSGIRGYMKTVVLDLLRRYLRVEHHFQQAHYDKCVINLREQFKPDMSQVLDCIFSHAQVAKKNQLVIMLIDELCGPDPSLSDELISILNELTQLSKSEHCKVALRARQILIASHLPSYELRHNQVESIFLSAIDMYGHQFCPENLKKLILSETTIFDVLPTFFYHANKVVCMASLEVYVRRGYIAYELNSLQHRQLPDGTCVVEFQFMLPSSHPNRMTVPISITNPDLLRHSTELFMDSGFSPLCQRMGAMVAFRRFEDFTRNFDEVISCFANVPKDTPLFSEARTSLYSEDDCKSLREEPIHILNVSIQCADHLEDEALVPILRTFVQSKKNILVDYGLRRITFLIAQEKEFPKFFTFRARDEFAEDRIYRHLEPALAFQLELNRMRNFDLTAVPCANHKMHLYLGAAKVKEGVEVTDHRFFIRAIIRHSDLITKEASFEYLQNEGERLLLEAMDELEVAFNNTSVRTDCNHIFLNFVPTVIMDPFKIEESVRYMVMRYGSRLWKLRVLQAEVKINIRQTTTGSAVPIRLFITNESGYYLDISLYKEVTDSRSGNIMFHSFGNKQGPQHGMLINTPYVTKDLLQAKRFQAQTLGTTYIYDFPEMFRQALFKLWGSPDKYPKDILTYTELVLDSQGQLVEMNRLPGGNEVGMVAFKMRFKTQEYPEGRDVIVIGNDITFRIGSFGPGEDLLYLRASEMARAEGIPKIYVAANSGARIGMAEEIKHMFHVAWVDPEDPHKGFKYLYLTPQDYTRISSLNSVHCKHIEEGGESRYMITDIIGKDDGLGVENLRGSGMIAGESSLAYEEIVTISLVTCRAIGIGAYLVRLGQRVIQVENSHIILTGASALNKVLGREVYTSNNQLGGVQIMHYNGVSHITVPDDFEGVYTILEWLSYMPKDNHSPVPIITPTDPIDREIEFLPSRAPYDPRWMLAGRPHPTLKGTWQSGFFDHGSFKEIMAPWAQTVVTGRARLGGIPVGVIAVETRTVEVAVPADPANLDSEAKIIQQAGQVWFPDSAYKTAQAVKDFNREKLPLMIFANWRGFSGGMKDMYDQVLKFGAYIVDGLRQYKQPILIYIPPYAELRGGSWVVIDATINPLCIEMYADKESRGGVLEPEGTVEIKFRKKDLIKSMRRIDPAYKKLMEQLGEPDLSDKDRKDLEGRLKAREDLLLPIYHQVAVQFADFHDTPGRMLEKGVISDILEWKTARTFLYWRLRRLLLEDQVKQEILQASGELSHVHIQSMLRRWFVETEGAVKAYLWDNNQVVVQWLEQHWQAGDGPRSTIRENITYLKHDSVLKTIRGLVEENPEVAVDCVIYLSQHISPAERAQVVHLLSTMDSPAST

IC50 (recombinant human ACC2): 0.16 µM | IC50 (recombinant human ACC1): > 100 µM
Structure (SMILES): C[C@@H](CO[C@H]1CC[C@H](Oc2nc3c(F)cc(OCC(F)F)c(Cl)c3n2C)CC1)NS(N)(=O)=O [Example I-248]
